Test results published in patent publication US11040035B2, “3-oxo-2,6-diphenyl-2,3-dihydropyridazine-4-carboxamides” (BAYER PHARMA AKTIENGESELLSCHAFT, priority 2016, dated 2021).

Legend:
[1] = molecular target: T1, AHR (Homo sapiens, UniProt P35869); assay: In vitro assay 1: antagonism in human cell line (transactivation assay, kynurenic acid prestimulated); settings: Assay 1: AHR-luc Hum Antagonism IC50 [M], 150 μM kynurenic acid, 20 hours, firefly luciferase
T1 sequence (P35869 11-848): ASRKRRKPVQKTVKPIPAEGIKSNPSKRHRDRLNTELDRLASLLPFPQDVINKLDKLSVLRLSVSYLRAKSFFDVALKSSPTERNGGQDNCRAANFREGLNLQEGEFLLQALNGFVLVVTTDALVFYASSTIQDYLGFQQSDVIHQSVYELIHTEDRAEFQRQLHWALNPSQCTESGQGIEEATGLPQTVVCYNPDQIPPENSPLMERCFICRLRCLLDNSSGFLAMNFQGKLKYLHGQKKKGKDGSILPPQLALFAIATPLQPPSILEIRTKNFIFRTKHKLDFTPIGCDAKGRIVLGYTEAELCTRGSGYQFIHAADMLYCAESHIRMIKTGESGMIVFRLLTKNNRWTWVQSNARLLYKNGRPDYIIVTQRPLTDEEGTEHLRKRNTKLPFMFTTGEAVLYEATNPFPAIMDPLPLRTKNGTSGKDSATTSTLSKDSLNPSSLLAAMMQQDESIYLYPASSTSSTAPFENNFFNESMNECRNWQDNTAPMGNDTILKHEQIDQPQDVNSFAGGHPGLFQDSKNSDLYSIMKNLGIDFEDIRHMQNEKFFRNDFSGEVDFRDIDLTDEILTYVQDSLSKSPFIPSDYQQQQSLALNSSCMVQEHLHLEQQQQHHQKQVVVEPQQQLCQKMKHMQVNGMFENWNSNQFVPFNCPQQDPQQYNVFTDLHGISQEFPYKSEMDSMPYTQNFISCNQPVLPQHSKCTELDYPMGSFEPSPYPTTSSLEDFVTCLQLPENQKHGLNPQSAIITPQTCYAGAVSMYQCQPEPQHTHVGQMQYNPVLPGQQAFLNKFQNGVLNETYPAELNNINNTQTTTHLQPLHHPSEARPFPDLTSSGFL
Protocol: Transactivation assays were carried out in U87 glioblastoma cells (ATCC) endogenously expressing AHR. In addition the cells were stably transfected with an AHR inducible firefly luciferase reporter gene construct that carried AHR-binding sites (DRE) in its promoter and a renilla reporter gene construct with constitutively active promoter. Kynurenic acid is an endogenous AHR activating ligand and was used to prestimulate test cells prior to testing the antagonistic properties of compounds.
In Vitro Assay 1: Antagonism in Human Cell Line
Cells in medium (tryptophan free RPMI, 1% FCS, 2 mM Glutamine) supplemented with 150 μM kynurenic acid were grown for 20 hours in absence (negative control) or presence of increasing concentrations of test compounds (typical dilutions: 72 pmol/L, 0.25 nmol/L, 0.89 nmol/L; 3.1 nmol/L, 11 nmol/L, 38 nmol/L, 130 nmol/L, 470 nmol/L, 1.6 μmol/L, 5.7 μmol/L and 20 μmol/L in duplicates). As positive inhibition control cells supplemented with 150 μM kynurenic acid were incubated in presence of 5 μM Staurosporin. Normalization was done by positive and negative controls.
Firefly luciferase and Renilla activity was determined by the DualGlo Luciferase Assay System (Promega, #2920).

[2] = molecular target: T1, AHR; assay: In vitro assay 2: agonism in human cell line (transactivation assay)
[3] = Assay 2: AHR-luc Hum Agonism IC50 [M], no kynurenic acid, 20 hours, firefly luciferase
[4] = read-out: Assay 2: AHR-luc Hum Agonism IC50, no kynurenic acid, 20 hours, firefly luciferase

Row | IC50 [1] [M] | IC50 [2, 3] [M] | IC50 [2, 4] [M] | SMILES
1 | 3.85e-07 | > 2e-05 | – | C[C@@H](O)CCNC(=O)c1cc(-c2ccc(Cl)cc2)nn(-c2cccc(F)c2)c1=O [Example 204, (−)-6-(4-Chlorophenyl)-2-(3-fluorophenyl)-N-[(3R)-3-hydroxybutyl]-3-oxo-2,3-dihydropyridazine-4-carboxamide]
2 | 1.98e-07 | > 2e-05 | – | CC(NC(=O)c1cc(-c2ccc(Cl)cc2)nn(-c2cccc(F)c2)c1=O)C(O)CO (single isomer, unassigned) [Example 346, 6-(4-chlorophenyl)-N-(3,4-dihydroxybutan-2-yl)-2-(3-fluorophenyl)-3-oxo-2,3-dihydropyridazine-4-carboxamide]
3 | 2.95e-07 | > 2e-05 | – | C[C@H](O)CNC(=O)c1cc(-c2ccc(Cl)cc2)nn(-c2cccc(F)c2)c1=O [Example 36, 6-(4-Chlorophenyl)-2-(3-fluorophenyl)-N-[(2S)-2-hydroxypropyl]-3-oxo-2,3-dihydropyridazine-4-carboxamide]
4 | 1.79e-08 | > 2e-05 | – | CC(C)[C@@H](CO)NC(=O)c1cc(-c2ccc(OC(F)F)cc2)nn(-c2cccc(F)c2)c1=O [Example 110, 6-[4-(Difluoromethoxy)phenyl]-2-(3-fluorophenyl)-N-[(2S)-1-hydroxy-3-methylbutan-2-yl]-3-oxo-2,3-dihydropyridazine-4-carboxamide]
5 | 2.67e-08 | – | > 2e-05 | CC(NC(=O)c1cc(-c2ccc(Cl)cc2)nn(-c2cccc(F)c2)c1=O)C(O)CO (single isomer, unassigned) [Example 359, 6-(4-chlorophenyl)-N-(3,4-dihydroxybutan-2-yl)-2-(3-fluorophenyl)-3-oxo-2,3-dihydropyridazine-4-carboxamide]
6 | 4.31e-08 | > 2e-05 | – | O=C(N[C@H]1COCC[C@H]1O)c1cc(-c2ccc(Cl)cc2)nn(-c2cccc(F)c2)c1=O [Example 273, 1,5-Anhydro-2-({[6-(4-chlorophenyl)-2-(3-fluorophenyl)-3-oxo-2,3-dihydropyridazin-4-yl]carbonyl}amino)-2,4-dideoxy-D-erythro-pentitol]
7 | 1.39e-08 | – | > 2e-05 | CC(NC(=O)c1cc(-c2ccc(Cl)cc2)nn(-c2cccc(F)c2)c1=O)C(O)CO (single isomer, unassigned) [Example 360, 6-(4-chlorophenyl)-N-(3,4-dihydroxybutan-2-yl)-2-(3-fluorophenyl)-3-oxo-2,3-dihydropyridazine-4-carboxamide]
8 | 1.16e-07 | > 2e-05 | – | CC(NC(=O)c1cc(-c2ccc(Cl)cc2)nn(-c2cccc(F)c2)c1=O)C(O)C(F)(F)F (racemic) [Example 216, 6-(4-Chlorophenyl)-2-(3-fluorophenyl)-3-oxo-N-[(2RS,3RS)-4,4,4-trifluoro-3-hydroxybutan-2-yl]-2,3-dihydropyridazine-4-carboxamide and 6-(4-Chlorophenyl)-2-(3-fluorophenyl)-3-oxo-N-[(2RS,3SR)-4,4,4-trifluoro-3-hydroxybutan-2-yl]-2,3-dihydropyridazine-4-carboxamide]
9 | 8.64e-08 | > 2e-05 | – | CC(CO)CNC(=O)c1cc(-c2ccc(Cl)cc2)nn(-c2cccc(F)c2)c1=O (single isomer, unassigned; (+)) [Example 201, (+)-6-(4-Chlorophenyl)-2-(3-fluorophenyl)-N-(3-hydroxy-2-methylpropyl)-3-oxo-2,3-dihydropyridazine-4-carboxamide]
10 | 1.21e-07 | > 2e-05 | – | C[C@@H](O)CCNC(=O)c1cc(-c2ccc(C(F)(F)F)cc2)nn(-c2cccc(F)c2)c1=O (single isomer, unassigned) [Example 330]
11 | > 2e-05 | 3.85e-09 | – | CC(NC(=O)c1cc(-c2ccc(C(F)(F)F)cc2)nn(-c2cccc(F)c2)c1=O)C(O)C(F)(F)F (single isomer, unassigned) [Example 269, Isomer no. 2 of 2-(3-fluorophenyl)-3-oxo-N-(4,4,4-trifluoro-3-hydroxybutan-2-yl)-6-[4-(trifluoromethyl)phenyl]-2,3-dihydropyridazine-4-carboxamide]
12 | 9.24e-07 | > 2e-05 | – | C[C@@H](CO)NC(=O)c1cc(-c2ccc(Cl)cc2)nn(-c2cccc(C(F)F)c2)c1=O [Example 370, 6-(4-chlorophenyl)-2-[3-(difluoromethyl)phenyl]-N-[(2S)-1-hydroxypropan-2-yl]-3-oxo-2,3-dihydropyridazine-4-carboxamide]
13 | 7.42e-07 | > 2e-05 | – | O=C(NC[C@@H](O)C(F)(F)F)c1cc(-c2ccc(Cl)c(Cl)c2)nn(-c2cccc(F)c2)c1=O (single isomer, unassigned) [Example 299, 6-(3,4-Dichlorophenyl)-2-(3-fluorophenyl)-3-oxo-N-(3,3,3-trifluoro-2-hydroxypropyl)-2,3-dihydropyridazine-4-carboxamide]
14 | 9.15e-07 | – | > 2e-05 | CC(O)C(C)NC(=O)c1cc(-c2ccc(OC(F)F)cc2)nn(-c2cccc(F)c2)c1=O (single isomer, unassigned) [Example 142, 6-[4-(Difluoromethoxy)phenyl]-2-(3-fluorophenyl)-N-(3-hydroxybutan-2-yl)-3-oxo-2,3-dihydropyridazine-4-carboxamide]
15 | 1.77e-07 | > 2e-05 | – | O=C(NCC(O)C(F)(F)F)c1cc(-c2ccc(Cl)c(Cl)c2)nn(-c2cccc(F)c2)c1=O (single isomer, unassigned) [Example 308, 6-(3,4-Dichlorophenyl)-2-(3-fluorophenyl)-3-oxo-N-(3,3,3-trifluoro-2-hydroxypropyl)-2,3-dihydropyridazine-4-carboxamide]
16 | 8.45e-09 | > 2e-05 | – | O=C(N[C@@H]1COC[C@@H]1O)c1cc(-c2ccc(C(F)(F)F)cc2)nn(-c2cccc(F)c2)c1=O (racemic) [Example 341, 2-(3-fluorophenyl)-N-(cis-4-hydroxytetrahydrofuran-3-yl)-3-oxo-6-[4-(trifluoromethyl)phenyl]-2,3-dihydropyridazine-4-carboxamide]
17 | 1.1e-07 | > 2e-05 | – | O=C(NCC(O)C1CC1)c1cc(-c2ccc(Cl)cc2)nn(-c2cccc(F)c2)c1=O (single isomer, unassigned; (-)) [Example 191, (−)-6-(4-Chlorophenyl)-N-(2-cyclopropyl-2-hydroxyethyl)-2-(3-fluorophenyl)-3-oxo-2,3-dihydropyridazine-4-carboxamide]
18 | 8.8e-07 | > 2e-05 | – | O=C(NCC(O)C(F)(F)F)c1cc(-c2ccc(Cl)cc2)nn(-c2cccc(C(F)F)c2)c1=O (stereo not shown) [Example 389, 6-(4-chlorophenyl)-2-[3-(difluoromethyl)phenyl]-3-oxo-N-(3,3,3-trifluoro-2-hydroxypropyl)-2,3-dihydropyridazine-4-carboxamide]
19 | 4.58e-08 | > 2e-05 | – | CC(NC(=O)c1cc(-c2ccc(Cl)cc2)nn(-c2cccc(F)c2)c1=O)C(O)CO (stereo not shown) [Example 337, 6-(4-chlorophenyl)-N-(3,4-dihydroxybutan-2-yl)-2-(3-fluorophenyl)-3-oxo-2,3-dihydropyridazine-4-carboxamide]
20 | 5.72e-07 | – | > 2e-05 | N#Cc1cccc(-n2nc(-c3ccc(Cl)cc3)cc(C(=O)NCC(O)C(F)(F)F)c2=O)c1 (single isomer, unassigned) [Example 364, 6-(4-chlorophenyl)-2-(3-cyanophenyl)-3-oxo-N-(3,3,3-trifluoro-2-hydroxypropyl)-2,3-dihydropyridazine-4-carboxamide]
21 | 8.99e-08 | > 2e-05 | – | O=C(NCC(O)C(F)(F)F)c1cc(-c2ccc(Cl)cc2)nn(-c2cccc(Cl)c2)c1=O (single isomer, unassigned) [Example 63, 2-(3-Chlorophenyl)-6-(4-chlorophenyl)-3-oxo-N-(3,3,3-trifluoro-2-hydroxypropyl)-2,3-dihydropyridazine-4-carboxamide]
22 | 1.61e-07 | > 2e-05 | – | COCC(O)CNC(=O)c1cc(-c2ccc(Cl)cc2)nn(-c2cccc(F)c2)c1=O (stereo not shown) [Example 31, 6-(4-Chlorophenyl)-2-(3-fluorophenyl)-N-(2-hydroxy-3-methoxypropyl)-3-oxo-2,3-dihydropyridazine-4-carboxamide]
23 | 2.84e-07 | > 2e-05 | – | O=C(NC[C@@H](O)CO)c1cc(-c2ccc(Cl)cc2)nn(-c2cccc(F)c2)c1=O [Example 159, 6-(4-Chlorophenyl)-N-[(2R)-2,3-dihydroxypropyl]-2-(3-fluorophenyl)-3-oxo-2,3-dihydropyridazine-4-carboxamide]
